The subject of test [1] is rotenone induced rat model of PD.
Description: Rats were assigned to three groups: control animals received vehicle infusion and daily saline injection (Veh/Sal N=6-8); a second group received rotenone infusion at the dose of 5 mg/kg/day and daily saline injection (ROT/Saline N=8-11); and the third group received rotenone infusion (5 mg/kg/day) and MB injection at the dose of 500 μg/kg/day (ROT/MB N=8-10). Vehicle or rotenone was infused via Alzet osmotic mini pumps that were filled with vehicle or rotenone dissolved in vehicle (equal volumes of dimethylsulfoxide and polyethylene glycol). Pumps containing vehicle or rotenone were sterilized with UV irradiation and implanted subcutaneously on the back. Intraperitoneal injections were administered with normal saline or MB, 500 μg/kg/day, diluted in normal saline to 500 μl of final volume. Rats were sacrificed on day 8 at four hours after last dose of MB or saline treatment.
After completion of neurological assessments and behavioral tests, rats were killed on the 8th day of rotenone infusion under anesthesia induced by xylazine (20 mg/kg, i.p.) and ketamine (100 mg/kg, i.p.). All osmotic pumps were checked for the residual liquid to ensure proper drug delivery. One hemisphere was fixed by 4% paraformaldehyde in phosphate buffer for 48 hr until processing for sectioning. The other hemisphere was snap-frozen in liquid nitrogen, and kept at −80° C. until extraction for biochemical analysis.
Rat hemispheres were sequentially incubated in 10%, 20% and 30% sucrose over night. The brains were then frozen in optimal cutting temperature) compound (VWR, San Francisco Calif.) and sectioned in the coronal plane with a cryostat to produce 20 μm floating sections. For single immunohistochemistry studies, 20-μm sections were blocked with 5% normal goat serum and incubated in primary antibodies at 4° C. over night. […] Double stained sections were examined with conventional fluorescence microscopy, and images were captured on a Zeiss microscope linked to an image analysis system with selective filter sets to visualize FITC, rhodamine, and DAPI separately. […]
For test [2], the system named is HT-22 cells. The experiment in a line: Mitochondrial superoxide and cellular ROS analysis, rotenone treated cells. The test is classed as cell-based. Conditions: MB 100 ng/ml. Here is the method: Mitochondrial specific superoxide and cellular ROS were measured with specific fluorescent probes. Briefly, HT-22 cells were treated with vehicle or 2 μM rotenone, with or without 100 ng/ml MB for 4 hr. The cells were dissociated, then incubated in pre-warmed PBS containing 0.5% BSA and H2DCFDA (Cellular ROS) or MitoSox (mitochondrial superoxide) for 15 min at 37° C., followed by washing with PBS. The cells were then resuspended in supplemented RPMI-1640 for further incubation. The cells were analyzed with FITC channel (Cellular ROS), or PE channel (MitoSox) using a BD™ LSRII flow cytometer.

Test [3] has as its system HT-22 cells. The experiment in a line: Protection against mitochondrial membrane potential collapse induced by glutamate in HT-22 cells. The test is classed as cell-based. The settings on record: Mus musculus.
In test [4] the test system is HT-22 cells. The experiment in a line: Seahorse XF-24 metabolic flux analysis (OCR, ECAR). The test is classed as cell-based. How it is done: HT22 cells were plated at 8,000/well and cultured on Seahorse XF-24 plates. Cells were grown in previously described medium and environments for 24 hr. On the day of metabolic flux analysis, cells were changed to unbuffered DMEM (DMEM base medium supplemented with 25 mM glucose, 10 mM sodium pyruvate, 31 mM NaCl, 2 mM GlutaMax, pH 7.4) and incubated at 37° C. in a non-CO2 incubator for 1 hr. All medium and injection reagents were adjusted to pH 7.4 on the day of assay. Four baseline measurements of oxygen consumption rate (OCR) and extracellular acidification rate (ECAR) were taken before sequential injection of mitochondrial inhibitors. Specific readings indicated by the arrows were taken after each addition of mitochondrial inhibitor before injection of the subsequent inhibitors. The mitochondrial inhibitors used were oligomycin (10 μM), FCCP (1 μM), and rotenone (5 μM). OCR and ECAR were automatically calculated and recorded by the Seahorse XF-24 software. After the assays, plates were saved and protein readings were measured for each well to confirm equal cell numbers per well. The percentage of change compared with the basal rates was calculated as the value of change divided by the average value of baseline readings.

Another test deals with mitochondrial complex I. The experiment in a line: Mitochondrial complex I activity assay (NADH dehydrogenase). The settings on record: in place of CoQ1. The test is classed as biochemical, rat. How it is done: (§1) Fresh rat heart was removed and placed in ice-cold mitochondrial isolation buffer containing 210 mM mannitol, 70 mM sucrose, 5 mM HEPES, and 1 mM EDTA, pH 7. The heart was homogenized immediately, and the mitochondrial fraction was isolated by differential centrifugation as described previously (Trounce et al., 1996). Mitochondria were stored at −80° C. until subsequent analysis.
All mitochondrial activity assays were performed according to previous publications with minimal modifications for complex I (Lenaz et al., 2004), complex I-III, complex II, complex III, and II-III (Trounce et al., 1996). […] Complex I activity was monitored by adding NADH to the mix with or without rotenone/antimycin A. The final data were normalized to blank values at time zero. The reaction was monitored in a kinetic spectrophotometer at 340 nm. Complex I activity was measured in arbitrary units and normalized to control levels for statistical analysis. Isolated mitochondria equivalent to 40-200 μg mitochondrial protein was used for each assay, except for assays with inhibitors, when larger amount of mitochondria (3 to 5 folds) were used to ensure that inhibition was distinguishable. Final data were normalized to control levels. For complex I-III activity, the reaction was initiated with the addition of NADH, cyt c was used as final substrate and its reduction was monitored at 550 nm. For assay of complex II-III activity, succinate was added instead of NADH, and the electron transfer to cyt c was performed according to previous publications (Atamna et al., 2008). To test whether the electrons from the reduced form of MB (MBH2) can be transferred to cyt c in mitochondrial lysate, we added 10 μM 2,7-dichlorofluorescin (DCFH, Invitrogen, Carlsbad, Calif.) to the reaction system. Free radicals convert non-fluorescent DCFH to highly fluorescent DCF (Ex, 488 nm, and Em, 530 nm). In the presence of cyt c, which accepts electrons from MBH2, conversion of DCFH to DCF is decreased.

The subject of test [5] is HT-22 cells. The experiment in a line: Protection against ROS production induced by glutamate in HT-22 cells. The test is classed as cell-based. The settings on record: Mus musculus.
For test [6], the system named is mitochondrial complex III. The experiment in a line: Mitochondrial complex III activity assay. The test is classed as biochemical, rat. The settings on record: data not shown. Here is the method:
as §1
(§2) All mitochondrial activity assays were performed according to previous publications with minimal modifications for complex I (Lenaz et al., 2004), complex I-III, complex II, complex III, and II-III (Trounce et al., 1996). […] Complex I activity was monitored by adding NADH to the mix with or without rotenone/antimycin A. The final data were normalized to blank values at time zero. The reaction was monitored in a kinetic spectrophotometer at 340 nm. Complex I activity was measured in arbitrary units and normalized to control levels for statistical analysis. Isolated mitochondria equivalent to 40-200 μg mitochondrial protein was used for each assay, except for assays with inhibitors, when larger amount of mitochondria (3 to 5 folds) were used to ensure that inhibition was distinguishable. Final data were normalized to control levels. For complex I-III activity, the reaction was initiated with the addition of NADH, cyt c was used as final substrate and its reduction was monitored at 550 nm. […]

Test [7] has as its system HT-22 cells. Kind of test: Cell viability assay, rotenone induced cytotoxicity. The test is classed as cell-based. Conditions: rotenone 8 μM, 100 ng/ml MB co-treatment; vehicle 25.4±1.6%.
Description: Then cells were treated with vehicle (DMSO), rotenone (2-8 μM), antimycin A (1-10 μg/ml), or glucose oxidase (2-10 mU) in the presence or absence of various concentrations of MB for 24 hours. At the end of the 24 hours, the medium was removed and the plates were rinsed with PBS and incubated with 10 μM calcein-AM (Invitrogen, Carlsbad, Calif.) in PBS for 20 minutes. Fluorescence was determined using a TECAN M200 microplate reader (San Jose, Calif.) with an excitation/emission set at 485/530 nm. Cell culture wells treated with bleach before rinsing were used as blank.
Test [8] deals with HT-22 cells. Kind of test: Cell viability assay, H2O2 (glucose oxidase) induced cytotoxicity. The test is classed as cell-based.
The test system of test [9] is HT-22 cells. The experiment in a line: Protection against cell death (cell viability) induced by glutamate in HT-22 cells. The test is classed as cell-based. The settings on record: Mus musculus.
Description: HT-22 cells (gift from Dr. David Schubert, Salk Institute, San Diego, Calif.) were plated at 4,000 cells per well in 96 well plates and cultured over night. […] At the end of the 24 hours, the medium was removed and the plates were rinsed with PBS and incubated with 10 μM calcein-AM (Invitrogen, Carlsbad, Calif.) in PBS for 20 minutes. […] Cell culture wells treated with bleach before rinsing were used as blank.
Test [10] has as its system preclinical animal model of Alzheimer's disease. The experiment in a line: Preclinical animal model of Alzheimer's disease, MB supplemented diet. Conditions: long term feeding of MB supplemented diet. The test is classed as in vivo.
The test system of test [11] is mitochondrial complex II-III. The experiment in a line: Mitochondrial complex II-III activity in extracted mitochondria. The test is classed as biochemical, rat. The settings on record: with and without antimycin A. Here is the method: as §1, §2
A further test concerns the target T1, mitochondrial complex II (Rattus norvegicus, UniProt P21913+Q641Z9+Q6PCT8+Q920L2).
T1 construct: the mitochondrial fraction was isolated by differential centrifugation; from tissue; host or cells: rat heart mitochondria
Kind of test: Mitochondrial complex II activity assay. The test is classed as biochemical. The settings on record: data not shown. Here is the method:
as §1, §2

The structures appear in SMILES notation.

T1 sequence (Q920L2 35-656): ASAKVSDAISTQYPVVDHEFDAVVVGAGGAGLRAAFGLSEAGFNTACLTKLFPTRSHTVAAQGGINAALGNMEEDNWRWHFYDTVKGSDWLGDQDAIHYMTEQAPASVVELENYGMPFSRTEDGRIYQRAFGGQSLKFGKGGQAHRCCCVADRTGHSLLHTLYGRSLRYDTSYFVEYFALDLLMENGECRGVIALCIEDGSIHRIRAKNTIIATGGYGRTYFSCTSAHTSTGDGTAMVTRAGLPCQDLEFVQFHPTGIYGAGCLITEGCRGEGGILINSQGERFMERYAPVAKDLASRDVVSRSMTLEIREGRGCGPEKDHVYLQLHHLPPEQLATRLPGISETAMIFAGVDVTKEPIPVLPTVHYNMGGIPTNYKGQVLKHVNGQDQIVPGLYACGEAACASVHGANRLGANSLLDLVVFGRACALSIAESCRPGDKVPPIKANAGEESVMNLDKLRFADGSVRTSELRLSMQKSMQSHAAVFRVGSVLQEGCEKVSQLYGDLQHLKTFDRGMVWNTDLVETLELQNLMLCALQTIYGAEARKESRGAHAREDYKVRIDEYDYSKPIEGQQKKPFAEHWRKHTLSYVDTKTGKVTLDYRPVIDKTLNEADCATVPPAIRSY
T1 sequence (P21913 31-282): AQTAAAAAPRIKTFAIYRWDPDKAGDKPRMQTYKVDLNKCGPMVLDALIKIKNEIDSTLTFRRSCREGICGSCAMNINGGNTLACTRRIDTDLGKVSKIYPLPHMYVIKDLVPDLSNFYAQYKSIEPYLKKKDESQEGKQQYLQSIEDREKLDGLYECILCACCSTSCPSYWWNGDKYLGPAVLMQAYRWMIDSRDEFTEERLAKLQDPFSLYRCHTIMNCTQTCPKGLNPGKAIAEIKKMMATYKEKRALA
T1 sequence (Q641Z9 1-169): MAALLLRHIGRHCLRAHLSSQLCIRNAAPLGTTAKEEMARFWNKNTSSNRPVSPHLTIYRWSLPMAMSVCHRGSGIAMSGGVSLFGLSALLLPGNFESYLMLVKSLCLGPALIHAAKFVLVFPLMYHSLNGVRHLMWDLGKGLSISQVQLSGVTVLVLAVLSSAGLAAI
T1 sequence (Q6PCT8 57-159): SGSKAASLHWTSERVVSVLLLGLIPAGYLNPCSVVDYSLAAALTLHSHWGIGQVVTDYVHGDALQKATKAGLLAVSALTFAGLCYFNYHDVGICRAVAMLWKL

For the molecule `CN(C)c1ccc2nc3ccc(=[N+](C)C)cc-3sc2c1` [methylene blue], the “TH-positive cells and nerve fiber in SNC and VTN” value in test [1] (ROT/MB animals) is “a sufficient amount of TH-positive cell and nerve fiber were observed”. In addition, the “Fluoro-jade B-positive TH neurons” value in [1] (ROT/MB group, 4 out of 11 ROT/Sal animals positive) is given as “not found”. In addition, in test [1] (ROT/MB group, 6 out 11 ROT/Sal rats positive), the “Ubiquitin positive inclusion bodies” value is listed as “not found”. In addition, the “Increase of mitochondrial superoxide (MitoSox probe)” value with HT-22 cells [2] is recorded as “almost completely blocked”. Further, the “Increase of total cellular ROS (DCFH2-DA)” value in the test with HT-22 cells [2] is recorded as “almost completely blocked”. The EC50 – broadly, the concentration needed to bring the measured effect to its halfway point – with HT-22 cells [3] was found to be 17.7 nM; in the test on HT-22 cells [5], 20.4 nM; with HT-22 cells [9] (HT-22, glutamate toxicity, HT22 cells, read-out: EC50 against glutamate toxicity in HT22 cells), 0.176 nM; in the test with HT-22 cells [9] (glutamate, HT-22 cells, read-out: Protection against cell death (EC50)) it was 18.8 nM. In the test on HT-22 cells [4] (10 μg/ml MB, two hour incubation, vehicle 44±4), the “Extracellular acidification rate (ECAR)” value stood at 9±3 mPH/min. Also, the “Oxygen consumption rate (OCR)” value in the test with HT-22 cells [4] (10 μg/ml MB, two hour incubation, vehicle 264±10) amounted to 594 ± 19 pmol/min. Moreover, the “Rotenone induced OCR inhibition” value in the test on HT-22 cells [4] (rotenone 5 μM injection) was “dose-dependently attenuated”. Further, in the test with mitochondrial complex I, the “Substrate of NADH dehydrogenase in complex I (accepts electrons from NADH)” value is listed as “can completely replace CoQ1 as a direct substrate”. Also, the “Effect on complex III activity alone” value in test [6] is reported as “no significant effect”. For the same molecule, the Cell survival in the test on HT-22 cells [7] is on record as 60.5±4.5%. Besides, the “Protection against H2O2 induced oxidative damage” value with HT-22 cells [8] is on record as “failed to protect”. Moreover, in test [10], the Cognitive functions result is “improves cognitive functions”. Also, the Maximal performance entry in test [10] is “improves maximal performance”. Further, the “Effect on complex II-III activity” value in test [11] was “no significant effects”. For the same molecule, the “Effect on complex II activity alone” value at mitochondrial complex II is “no significant effect”.

The values are drawn from patent publication US20140148446A1, “COMPOUNDS THAT ENABLE ALTERNATIVE MITOCHONDRIAL ELECTRON TRANSFER” (University of North Texas Health Science Center, priority 2010, published 2014).
